# Test results reported in publication PMC7391767, “Molecular mechanisms underlying menthol binding and activation of TRPM8 ion channel” (Nature Communications, 2020).
# “And” between values parts separate entries of the source, which are not always exact repeats. Identical values can stand only once. “Also recorded” adds a separate entry of the source. Like-named read-outs stand apart in the source and are kept apart here.
# Experiments:
# Type in all cases: cell-based
# wild-type TRPM8 = target: T1, wild-type TRPM8 (Mus musculus, UniProt Q8R4D5); assay: whole-cell patch-clamp recording of ligand activation
# T1 construct: expressed in transfected cells; host or cells: HEK293T
# T1 sequence (Q8R4D5 whole entry): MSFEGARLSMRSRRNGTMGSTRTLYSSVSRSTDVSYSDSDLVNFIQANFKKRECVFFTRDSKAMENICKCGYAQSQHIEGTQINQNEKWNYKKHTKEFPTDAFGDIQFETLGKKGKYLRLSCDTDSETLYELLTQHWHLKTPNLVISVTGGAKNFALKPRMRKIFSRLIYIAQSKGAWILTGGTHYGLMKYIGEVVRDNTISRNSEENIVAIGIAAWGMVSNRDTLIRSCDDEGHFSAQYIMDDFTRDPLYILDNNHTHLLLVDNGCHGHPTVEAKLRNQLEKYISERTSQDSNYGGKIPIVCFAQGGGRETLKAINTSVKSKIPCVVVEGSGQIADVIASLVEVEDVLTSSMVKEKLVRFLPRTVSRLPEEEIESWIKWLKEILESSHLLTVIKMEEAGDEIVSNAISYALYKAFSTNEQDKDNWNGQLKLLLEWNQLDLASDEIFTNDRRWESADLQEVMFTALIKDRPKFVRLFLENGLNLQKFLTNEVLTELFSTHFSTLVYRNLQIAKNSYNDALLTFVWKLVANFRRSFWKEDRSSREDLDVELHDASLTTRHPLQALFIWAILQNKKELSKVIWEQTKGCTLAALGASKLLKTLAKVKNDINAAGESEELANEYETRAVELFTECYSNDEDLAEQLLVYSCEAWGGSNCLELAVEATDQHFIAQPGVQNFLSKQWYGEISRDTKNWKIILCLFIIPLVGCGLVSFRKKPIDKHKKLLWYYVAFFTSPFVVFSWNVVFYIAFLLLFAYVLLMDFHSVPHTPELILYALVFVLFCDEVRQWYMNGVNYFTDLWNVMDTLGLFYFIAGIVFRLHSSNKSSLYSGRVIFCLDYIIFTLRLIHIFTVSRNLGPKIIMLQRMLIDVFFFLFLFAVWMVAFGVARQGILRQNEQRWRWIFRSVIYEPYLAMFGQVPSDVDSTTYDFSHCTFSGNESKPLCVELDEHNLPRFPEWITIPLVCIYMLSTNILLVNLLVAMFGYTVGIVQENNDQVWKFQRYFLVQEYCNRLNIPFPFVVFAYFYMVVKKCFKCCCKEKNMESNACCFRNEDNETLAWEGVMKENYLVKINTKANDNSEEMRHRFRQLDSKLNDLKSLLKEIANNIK
# Protocol: Murine TRPM8 was used in this study. Point mutations were made by Fast Mutagenesis Kit V2 (SBS Genetech). Primers used to generate point mutations are summarized in Supplementary Table 2.
# Cells were transiently transfected with cDNA constructs by Lipofectamine 3000 (Life Technologies) following the manufacturer’s protocol. Patch-clamp recordings were performed 1–2 days after transfection.
# (§1) Patch-clamp recordings were performed with a HEKA EPC10 amplifier controlled by PatchMaster software (HEKA). Whole-cell recordings were performed at ±80 mV. Patch pipettes were prepared from borosilicate glass and fire-polished to resistance of ~4 MΩ. For whole-cell recording, serial resistance was compensated by 60%. For single-channel recordings, patch pipettes were fire-polished to a higher resistance of 6-to-10 MΩ and then recorded in the inside-out configuration. To maximize the chance of obtaining a patch with only one channel, single-channel recordings were performed about 8 h after transfection. A solution with 130 mM NaCl, 10 mM glucose, 0.2 mM EDTA, and 3 mM HEPES (pH 7.2) was used in both bath and pipette for either whole-cell or single-channel recordings. Membrane potential was clamped at +80 mV for single-channel recordings. Current was sampled at 10 kHz and filtered at 2.9 kHz. All recordings were performed at room temperature (22 °C) with the maximum variation of 1 °C.
# (§2) Ligands such as menthol and its analogs were perfused to membrane patch by a gravity-driven system (RSC-200, Bio-Logic). Bath and ligand solution were delivered through separate tubes to minimize the mixing of solutions. Patch pipette was placed in front of the perfusion tube outlet.
# Data from whole-cell recordings were analyzed in Igor Pro version 6.1 (WaveMatrix). EC50 values were derived from fitting a Hill equation to the concentration–response relationship. […] To distinguish these possibilities, dissociation constant (Kd) for ligand binding was estimated assuming the following gating scheme:1 C0↔KdC1↔LO, where L is the equilibrium constant for the final closed-to-open transition.
# TRPM8 F839A = target: T2, TRPM8 F839A (Mus musculus, UniProt Q8R4D5, F839A); assay: whole-cell patch-clamp and thermodynamic mutant cycle analysis
# T2 construct: expressed in transfected cells; host or cells: HEK293T
# T2 sequence (Q8R4D5 whole entry F839A): as the sequence (Q8R4D5 whole entry) above, with F839A counted along it
# Protocol: (§3) Murine TRPM8 was used in this study. Point mutations were made by Fast Mutagenesis Kit V2 (SBS Genetech). Primers used to generate point mutations are summarized in Supplementary Table 2. All mutations were confirmed by sequencing.
# (§4) HEK293T cells purchased from Kunming Cell Bank, Kunming Institute of Zoology, Chinese Academy of Sciences (ATCC, CRL-3216) were cultured in Dulbecco’s modified Eagle’s medium supplemented with 20 mM L-glutamine and 10% fetal bovine serum. Cells were transiently transfected with cDNA constructs by Lipofectamine 3000 (Life Technologies) following the manufacturer’s protocol. Patch-clamp recordings were performed 1–2 days after transfection.
# as §1, §2
# (§5) Data from whole-cell recordings were analyzed in Igor Pro version 6.1 (WaveMatrix). EC50 values were derived from fitting a Hill equation to the concentration–response relationship. Changes in EC50 by point mutation may be caused by either perturbation of ligand bind or channel gating or both. To distinguish these possibilities, dissociation constant (Kd) for ligand binding was estimated assuming the following gating scheme:1 C0↔KdC1↔LO, where L is the equilibrium constant for the final closed-to-open transition.
# (§6) To perform thermodynamic cycle analysis, Kd values of four channel-ligand combinations (WT channel, menthol: Kd _1; Mutant channel, menthol: Kd _2; WT channel, menthol analog: Kd _3; Mutant channel, menthol analog: Kd _4) were determined separately. The strength of coupling was determined by the coupling energy (kT multiplied by LnΩ, where k is the Boltzmann constant and T is temperature in Kelvin). LnΩ was calculated by Eq. (2) as[51]2 LnΩ=LnKd_1⋅Kd_4/Kd_2⋅Kd_3.
# TRPM8 I846V = target: T3, TRPM8 I846V (Mus musculus, UniProt Q8R4D5, I846V); assay: as above
# T3 construct: expressed in transfected cells; host or cells: HEK293T
# T3 sequence (Q8R4D5 whole entry I846V): as the sequence (Q8R4D5 whole entry) above, with I846V counted along it
# Protocol: as §3, §4, §1, §2, §5, §6
# TRPM8 L843A = target: T4, TRPM8 L843A (Mus musculus, UniProt Q8R4D5, L843A); assay: as above
# T4 construct: expressed in transfected cells; host or cells: HEK293T
# T4 sequence (Q8R4D5 whole entry L843A): as the sequence (Q8R4D5 whole entry) above, with L843A counted along it
# Protocol: as §3, §4, §1, §2, §5, §6
# TRPM8 L843I = target: T5, TRPM8 L843I (Mus musculus, UniProt Q8R4D5, L843I); assay: as above
# T5 construct: expressed in transfected cells; host or cells: HEK293T
# T5 sequence (Q8R4D5 whole entry L843I): as the sequence (Q8R4D5 whole entry) above, with L843I counted along it
# Protocol: as §3, §4, §1, §2, §5, §6
# TRPM8 L843V = target: T6, TRPM8 L843V (Mus musculus, UniProt Q8R4D5, L843V); assay: as above
# T6 construct: expressed in transfected cells; host or cells: HEK293T
# T6 sequence (Q8R4D5 whole entry L843V): as the sequence (Q8R4D5 whole entry) above, with L843V counted along it
# Protocol: as §3, §4, §1, §2, §5, §6
# TRPM8 V775A = target: T7, TRPM8 V775A (Mus musculus, UniProt Q8R4D5, V775A); assay: as above
# T7 construct: expressed in transfected cells; host or cells: HEK293T
# T7 sequence (Q8R4D5 whole entry V775A): as the sequence (Q8R4D5 whole entry) above, with V775A counted along it
# Protocol: as §3, §4, §1, §2, §5, §6
# TRPM8 Y745F = target: T8, TRPM8 Y745F (Mus musculus, UniProt Q8R4D5, Y745F); assay: as above
# T8 construct: expressed in transfected cells; host or cells: HEK293T
# T8 sequence (Q8R4D5 whole entry Y745F): as the sequence (Q8R4D5 whole entry) above, with Y745F counted along it
# Protocol: as §3, §4, §1, §2, §5, §6
# [1] = R(kcal/K/mol) 1.99E-03, T 2.97E+02, menthol vs labelled analog
# [2] = mutant cycle menthol vs labelled analog
compound,measurement,setting,value
OC1CCCCC1 [cyclohexanol],activation of TRPM8 channel,wild-type TRPM8; up to 5 mM,failed to open; also recorded: cannot activate
C=C(C)[C@@H]1CC[C@@H](C)C[C@H]1O [isopulegol],"L (equilibrium constant between closed and open states upon ligand binding), Ave",wild-type TRPM8; WT,2.233
same,Ratio X1 (Kd menthol / Kd labelled analog),wild-type TRPM8; WT,0.9034
same,"concentration–response curve value, ave","wild-type TRPM8; WT, 100 microM",0.06552
same,"concentration–response curve value, ave","wild-type TRPM8; WT, 200 microM",0.185
same,"concentration–response curve value, ave","wild-type TRPM8; WT, 500 microM",0.4757
same,"concentration–response curve value, single recording","wild-type TRPM8; WT, 500 microM",0.4347 and 0.5954 and 0.3968
same,"concentration–response curve value, ave","wild-type TRPM8; WT, 1000 microM",0.5625
same,"concentration–response curve value, single recording","wild-type TRPM8; WT, 1000 microM",0.5176 and 0.6462 and 0.5237
same,"concentration–response curve value, ave","wild-type TRPM8; WT, 5000 microM",0.6452
same,"concentration–response curve value, single recording","wild-type TRPM8; WT, 5000 microM",0.5498 and 0.7014 and 0.6843
same,"concentration–response curve value, ave","wild-type TRPM8; WT, 10000 microM",0.6337
same,"concentration–response curve value, single recording","wild-type TRPM8; WT, 10000 microM",0.5212 and 0.6983 and 0.6816
same,Kd,"wild-type TRPM8; WT, calculated from concentration–response curves (EC50 and Po max), read-out: Kd, Ave",1050 µM
same,Kd,"wild-type TRPM8; WT, read-out: Kd, single recording",1320 µM and 824 µM and 542 µM and 812 µM and 1460 µM and 617 µM and 1260 µM and 1590 µM
same,Ratio X2 (Kd menthol / Kd labelled analog),TRPM8 F839A,1.37
same,"Energy, Ave",TRPM8 F839A; [1],-0.25
same,Omega(X1/X2),TRPM8 F839A; menthol vs labelled analog,0.66
same,Coupling Energy,TRPM8 F839A; [2],0.42 kT
same,"L (equilibrium constant between closed and open states upon ligand binding), Ave",TRPM8 I846V,41.287
same,Ratio X2 (Kd menthol / Kd labelled analog),TRPM8 I846V,0.02928
same,"concentration–response curve value, ave",TRPM8 I846V; 100 microM,0.5053
same,"concentration–response curve value, single recording",TRPM8 I846V; 100 microM,0.5194 and 0.5746 and 0.5283 and 0.3989
same,"concentration–response curve value, ave",TRPM8 I846V; 200 microM,0.8162
same,"concentration–response curve value, single recording",TRPM8 I846V; 200 microM,0.818 and 0.8632 and 0.783 and 0.8004
same,"concentration–response curve value, ave",TRPM8 I846V; 500 microM,0.9296
same,"concentration–response curve value, single recording",TRPM8 I846V; 500 microM,0.9586 and 0.8698 and 0.9387 and 0.9513
same,"concentration–response curve value, ave",TRPM8 I846V; 1000 microM,0.9432
same,"concentration–response curve value, single recording",TRPM8 I846V; 1000 microM,0.9846 and 0.8706 and 0.9587 and 0.9591
same,"concentration–response curve value, ave",TRPM8 I846V; 5000 microM,0.9595
same,"concentration–response curve value, single recording",TRPM8 I846V; 5000 microM,0.9671 and 0.952
same,"Energy, Ave",TRPM8 I846V; [1],2.02
same,Kd,"TRPM8 I846V; calculated from concentration–response curves, read-out: Kd, Ave",4090 µM
same,Omega(X1/X2),TRPM8 I846V; menthol vs labelled analog,30.85
same,Coupling Energy,TRPM8 I846V; [2],3.43 kT
same,Ratio X2 (Kd menthol / Kd labelled analog),TRPM8 L843A,34.2166
same,"Energy, Ave",TRPM8 L843A; [1],-2.14
same,Omega(X1/X2),TRPM8 L843A; menthol vs labelled analog,0.0264
same,Coupling Energy,TRPM8 L843A; [2],3.63 kT
same,Ratio X2 (Kd menthol / Kd labelled analog),TRPM8 L843I,0.229
same,"Energy, Ave",TRPM8 L843I; [1],0.81
same,Omega(X1/X2),TRPM8 L843I; menthol vs labelled analog,3.95
same,Coupling Energy,TRPM8 L843I; [2],1.37 kT
same,Ratio X2 (Kd menthol / Kd labelled analog),TRPM8 L843V,0.4038
same,"Energy, Ave",TRPM8 L843V; [1],0.48
same,Omega(X1/X2),TRPM8 L843V; menthol vs labelled analog,2.24
same,Coupling Energy,TRPM8 L843V; [2],0.81 kT
same,Ratio X2 (Kd menthol / Kd labelled analog),TRPM8 V775A,2.4876
same,"Energy, Ave",TRPM8 V775A; [1],-0.60
same,Omega(X1/X2),TRPM8 V775A; menthol vs labelled analog,0.36
same,Coupling Energy,TRPM8 V775A; [2],1.01 kT
same,Ratio X2 (Kd menthol / Kd labelled analog),TRPM8 Y745F,1.55E+00
same,"Energy, Ave",TRPM8 Y745F; [1],-0.32
same,Omega(X1/X2),TRPM8 Y745F; menthol vs labelled analog,0.58
same,Coupling Energy,TRPM8 Y745F; [2],0.54 kT
